Laboratory results reported in patent US7767716B2, “Acyl hydrazines as kinase inhibitors, in particular for SGK” (Merck Patent GmbH, priority 2005, dated 2010).

Row | melting point [°C] | Compound
1 | 259 | CCc1c(C(=O)NNC(=O)Cc2cccc(O)c2)ccc(O)c1Cl [compound 84]
2 | 260 to 261 | NC(=O)c1cc(C(=O)NNC(=O)Cc2cccc(O)c2)c(O)cc1O [compound 85]
3 | 258 | N#Cc1cc(C(=O)NNC(=O)Cc2cccc(O)c2)c(O)cc1O [compound 86]
4 | 240 | Cc1cc(C(=O)NNC(=O)Cc2cccc(O)c2)c(O)cc1O [compound 87]
5 | 200 to 202 | O=C(Cc1cccc(O)c1)NNC(=O)c1cc(Cl)c(O)cc1C(F)(F)F [compound 88]
